Source: patent US20250154140A1 (Sunnybrook Research Institute, priority 2022, published 2025)

Biological target: BAX (Homo sapiens, UniProt Q07812)
Assay: SMAC mCherry assay in permeabilized Bax-/- Bak-/- BMK cells with recombinant Bax and cBid
Assay type: cell-based, mouse
Set-up: made in house; host or cells: Escherichia coli BL21-AI
Conditions: 20 nM Bax, 0.5 nM cBid, 60-80 minutes; read-out: SMAC mCherry I.D IC50
Protocol: Bax−/− Bak−/− double-knockout Baby Mouse Kidney (BMK) cells stably expressing a SMAC-(1-56)-mCherry fusion protein were cultured in DMEM complete (DMEM supplemented with 10% FBS and 1× Penicillin-Streptomycin) in 10 cm diameter tissue-culture treated dishes at 37° C. in a humidified incubator with 5% CO2 in air. Cells were washed with PBS, incubated with 1×Trypsin and resuspended in DMEM complete. Detached cells were seeded at 6000 cells per well in 50 uL DMEM complete into a 384 well Perkin-Elmer Phenoplate, incubated at room-temperature for 30 minutes followed by incubation overnight at 37° C. in a humidified incubator with 5% CO2 in air. Recombinant Bax and recombinant cBid were quickly thawed between fingers and 25 mM compound stocks in DMSO were thawed at room temperature. An 8 point titration curve of each compound was created in a 384-well source plate containing Trehalose-Hepes Buffer (THB, 135 mM trehalose, 50 mM KCl, 10 mM HEPES-KOH pH 7.4, 5 mM succinate, 20 uM EDTA, 20 uM EGTA, 0.1% BSA) supplemented with 1/1000 DRAQ5, 0.0025% digitonin, 20 nM Bax and 0.5 nM cBid. The source plate also contained control wells with THB supplemented with 1/1000 DRAQ5, 0.0025% digitonin plus 20 nM Bax (negative control) or 20 nM Bax and 0.5 nM cBid (positive control). Using the Vantage automated liquid handler, DMEM complete media was removed from the cells growing in the 384 well Phenoplate. The cells were washed 2× with 30 uL THB and then 25 uL from the 384 well source plate containing THB proteins and compounds was transferred to the cells growing in the 384 well plate. The cells were incubated for 60-80 minutes at 37 C in a humidified incubator with 5% CO2 in air and then imaged on the Opera Phenix Microscope. Two image channels were acquired: 1) DRAQ5 channel, to visualize nuclei and aid in cell segmentation and 2) SMAC-mCherry channel to visualize mitochondria that retain SMAC-mCherry. Data was processed using PerkinElmer Harmony software where the cells were segmented using the DRAQ5 channel and the mean intensity of SMAC-mCherry for each cell was calculated. The single-cell lobject level data was exported and then analyzed using R code. A per cell SMAC-mCherry intensity cutoff was calculated as 1.33 times the mean per cell SMAC-mCherry intensity of the THB+Bax control. Cells with a SMAC-mCherry intensity below or equal to the cutoff were scored as “released”. The percentage SMAC-mCherry release was calculated as the number of cells scored as “released” divided by the total amount of cells multiplied by 100. Dose-response curves were fit to a 4-parameter log-logistic model to determine the IC50 value for each compound.

Chain of BAX (Q07812 whole entry): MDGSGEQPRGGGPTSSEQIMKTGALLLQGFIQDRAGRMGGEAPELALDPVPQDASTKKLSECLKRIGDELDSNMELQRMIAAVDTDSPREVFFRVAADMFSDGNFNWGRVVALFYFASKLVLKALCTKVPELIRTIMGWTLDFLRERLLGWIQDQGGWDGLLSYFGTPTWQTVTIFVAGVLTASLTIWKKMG

| Compound | IC50 [µM] |
| --- | --- |
| COc1cc2ccnc(Nc3ccc(F)c(Cl)c3)c2cc1NC(=O)CCCCN1CCCCC1 [Compound 1-2, N-(1-((3-chloro-4-fluorophenyl)amino)-6-methoxyisoquinolin-7-yl)-5-(piperidin-1-yl)pentanamide] | 0.1 to 10 |
| COc1cc2ccnc(Nc3ccc(F)c(Cl)c3)c2cc1NC(=O)CCN1CCCCC1 [Compound 1-3, N-(1-((3-chloro-4-fluorophenyl)amino)-6-methoxyisoquinolin-7-yl)-3-(piperidin-1-yl)propanamide] | 11 to 50 |
| COc1cc2ccnc(Nc3ccc(F)c(Cl)c3)c2cc1NC(=O)CCCN1CCCC1 [Compound 1-4] | 0.1 to 10 |
| COc1cc2ccnc(Nc3ccc(F)c(Cl)c3)c2cc1NC(=O)CCCN1C[C@@H](C)O[C@@H](C)C1 [Compound 1-5, N-(1-((3-chloro-4-fluorophenyl)amino)-6-methoxyisoquinolin-7-yl)-4-((2S,6R)-2,6-dimethylmorpholino)butanamide] | 0.1 to 10 |
| COc1cc2ccnc(Nc3ccc(F)c(Cl)c3)c2cc1NC(=O)CCCN1CCOCC1 [Compound 1-6, N-(1-((3-chloro-4-fluorophenyl)amino)-6-methoxyisoquinolin-7-yl)-4-morpholinobutanamide] | 11 to 50 |
| COc1cc2ccnc(Nc3ccc(F)c(Cl)c3)c2cc1NC(=O)CCCN1CCN(C)CC1 [Compound 1-7, N-(1-((3-chloro-4-fluorophenyl)amino)-6-methoxyisoquinolin-7-yl)-4-(4-methylpiperazin-1-yl)butanamide] | 0.1 to 10 |
| COc1cc2ccnc(Nc3cccc(F)c3)c2cc1NC(=O)CCCN1CCCCC1 [Compound 1-9, N-(1-((3-fluorophenyl)amino)-6-methoxyisoquinolin-7-yl)-4-(piperidin-1-yl)butanamide] | 11 to 50 |
| COc1cccc(Nc2nccc3cc(OC)c(NC(=O)CCCN4CCCCC4)cc23)c1 [Compound 1-10, N-(6-methoxy-1-((3-methoxyphenyl)amino)isoquinolin-7-yl)-4-(piperidin-1-yl)butanamide] | > 100 |
| COc1cc2ccnc(Nc3cccc(C)c3)c2cc1NC(=O)CCCN1CCCCC1 [Compound 1-11, N-(6-methoxy-1-(m-tolylamino)isoquinolin-7-yl)-4-(piperidin-1-yl)butanamide] | 51 to 100 |
| COc1cc2ccnc(Nc3ccc(F)cc3)c2cc1NC(=O)CCCN1CCCCC1 [Compound 1-12, N-(1-((4-fluorophenyl)amino)-6-methoxyisoquinolin-7-yl)-4-(piperidin-1-yl)butanamide] | 51 to 100 |
| COc1cc2ccnc(Nc3cccc(Cl)c3)c2cc1NC(=O)CCCN1CCCCC1 [Compound 1-13, N-(1-((3-chlorophenyl)amino)-6-methoxyisoquinolin-7-yl)-4-(piperidin-1-yl)butanamide] | 11 to 50 |
| COc1cc2ccnc(Nc3ccc(C)cc3)c2cc1NC(=O)CCCN1CCCCC1 [Compound 1-14, N-(6-methoxy-1-(p-tolylamino)isoquinolin-7-yl)-4-(piperidin-1-yl)butanamide] | 51 to 100 |
| COc1cc2ccnc(Nc3ccccc3)c2cc1NC(=O)CCCN1CCCCC1 [Compound 1-15, N-(6-methoxy-1-(phenylamino)isoquinoin-l7-yl)-4-(piperidin-1-yl)butanamide] | 51 to 100 |
| Cc1cc2ccnc(Nc3ccc(F)c(Cl)c3)c2cc1NC(=O)CCCN1CCCCC1 [Compound 1-17, N-(1-((3-chloro-4-fluorophenyl)amino)-6-methylisoquinolin-7-yl)-4-(piperidin-1-yl)butanamide] | 11 to 50 |
| O=C(CCCN1CCCCC1)Nc1cc2c(Nc3ccc(F)c(Cl)c3)nccc2cc1Cl [Compound 1-26, N-(6-chloro-1-((3-chloro-4-fluorophenyl)amino)isoquinolin-7-yl)-4-(piperidin-1-yl)butanamide] | 0.1 to 10 |
| CCc1cc(Nc2nccc3cc(OC)c(NC(=O)CCCN4CCCCC4)cc23)ccc1F [Compound 1-28, N-(1-((3-ethyl-4-fluorophenyl)amino)-6-methoxyisoquinolin-7-yl)-4-(piperidin-1-yl)butanamide] | 11 to 50 |
| COc1cc2ccnc(Nc3ccc(F)c(C(C)C)c3)c2cc1NC(=O)CCCN1CCCCC1 [Compound 1-30, N-(1-((4-fluoro-3-isopropylphenyl)amino)-6-methoxyisoquinolin-7-yl)-4-(piperidin-1-yl)butanamide] | 11 to 50 |
| COc1cc2ccnc(Nc3ccc(F)c(Cl)c3)c2cc1N(C)C(=O)CCCN1CCCCC1 [Compound 1-31, N-(1-((3-chloro-4-fluorophenyl)amino)-6-methoxyisoquinolin-7-yl)-N-methyl-4-(piperidin-1-yl)butanamide] | 11 to 50 |
| O=C(CCCN1CCCCC1)Nc1ccc2ccnc(Nc3ccc(Cl)c(Cl)c3F)c2c1 [Compound 1-34, N-(1-((3,4-dichloro-2-fluorophenyl)amino)isoquinolin-7-yl)-4-(piperidin-1-yl)butanamide] | 0.1 to 10 |
| O=C(CCCN1CCCCC1)Nc1ccc2ccnc(Nc3ccc(Cl)c(Cl)c3)c2c1 [Compound 1-35, N-(1-((3,4-dichlorophenyl)amino)isoquinolin-7-yl)-4-(piperidin-1-yl)butanamide] | 0.1 to 10 |

Next, values leading:

| IC50 [µM] | Compound |
| --- | --- |
| 0.1 to 10 | COc1cc2ccnc(Nc3ccc(F)c(Cl)c3)c2cc1NC(=O)CCCN1CCC(F)(F)CC1 [Compound 1-8, N-(1-((3-chloro-4-fluorophenyl)amino)-6-methoxyisoquinolin-7-yl)-4-(4,4-difluoropiperidin-1-yl)butanamide] |
| 0.1 to 10 | COc1cc2ccnc(Nc3ccc(F)c(C(F)(F)F)c3)c2cc1NC(=O)CCCN1CCCCC1 [Compound 1-16, N-(1-((4-fluoro-3-(trifluoromethyl)phenyl)amino)-6-methoxyisoquinolin-7-yl)-4-(piperidin-1-yl)butanamide] |
| 0.1 to 10 | O=C(CCCN1CCCCC1)Nc1ccc2ccnc(Nc3ccc(F)c(Cl)c3)c2c1 [Compound 1-18, N-(1-((3-chloro-4-fluorophenyl)amino)isoquinolin-7-yl)-4-(piperidin-1-yl)butanamide] |
| 0.1 to 10 | COc1cc2ccnc(Nc3ccc(C)c(Cl)c3)c2cc1NC(=O)CCCN1CCCCC1 [Compound 1-21, N-(1-((3-chloro-4-methylphenyl)amino)-6-methoxyisoquinolin-7-yl)-4-(piperidin-1-yl)butanamide] |
| 11 to 50 | COc1cc(Nc2nccc3cc(OC)c(NC(=O)CCCN4CCCCC4)cc23)ccc1F [Compound 1-22, N-(1-((4-fluoro-3-methoxyphenyl)amino)-6-methoxyisoquinolin-7-yl)-4-(piperidin-1-yl)butanamide] |
| 0.1 to 10 | COc1cc2ccnc(Nc3cc(Cl)c(F)c(Cl)c3)c2cc1NC(=O)CCCN1CCCCC1 [Compound 1-23, N-(1-((3,5-dichloro-4-fluorophenyl)amino)-6-methoxyisoquinolin-7-yl)-4-(piperidin-1-yl)butanamide] |
| 11 to 50 | COc1ccc(Nc2nccc3cc(OC)c(NC(=O)CCCN4CCCCC4)cc23)cc1Cl [Compound 1-24, N-(1-((3-chloro-4-methoxyphenyl)amino)-6-methoxyisoquinolin-7-yl)-4-(piperidin-1-yl)butanamide] |
| 0.1 to 10 | COc1cc2ccnc(Nc3cc(F)cc(Cl)c3)c2cc1NC(=O)CCCN1CCCCC1 [Compound 1-25, N-(1-((3-chloro-5-fluorophenyl)amino)-6-methoxyisoquinolin-7-yl)-4-(piperidin-1-yl)butanamide] |
| 0.1 to 10 | COc1cc2ccnc(Nc3ccc(Cl)c(Cl)c3)c2cc1NC(=O)CCCN1CCCCC1 [Compound 1-27, N-(1-((3,4-dichlorophenyl)amino)-6-methoxyisoquinolin-7-yl)-4-(piperidin-1-yl)butanamide] |
| 0.1 to 10 | COc1cc(NC(=O)CCCN2CCCCC2)cc2c(Nc3ccc(F)c(Cl)c3)nccc12 [Compound 1-29, N-(1-((3-chloro-4-fluorophenyl)amino)-5-methoxyisoquinolin-7-yl)-4-(piperidin-1-yl)butanamide] |
| 0.1 to 10 | Cc1ccc(Nc2nccc3ccc(NC(=O)CCCN4CCCCC4)cc23)cc1Cl [Compound 1-32, N-(1-((3-chloro-4-methylphenyl)amino)isoquinolin-7-yl)-4-(piperidin-1-yl)butanamide] |
| 0.1 to 10 | O=C(CCCN1CCCCC1)Nc1ccc2ccnc(Nc3ccc(F)c(C(F)(F)F)c3)c2c1 [Compound 1-33, N-(1-((4-fluoro-3-(trifluoromethyl)phenyl)amino)isoquinolin-7-yl)-4-(piperidin-1-yl)butanamide] |
